Entries after “also recorded” stand apart in the source; their conditions may differ. Where two headings read alike, the source gives them in different places.
Tests used:
[1] = target: T1, mitochondrial F1F0-ATPase (Bos taurus, UniProt P13621+P32876); assay: biochemical; design: species or system bovine; details: for Ki: oligomycin
Ramos B cells = assay: cell death of Ramos B cells, propidium iodide exclusion by flow cytometry, 24 h; format: cell-based, human; details: Homo sapiens
Jurkat cells [2] = assay: cell death at 24 h; format: cell-based
Procedure: (§1) Since an early mitochondrial superoxide (O2^−) mediates apoptosis induced by Bz-423, the O2^− response of cells 1 h following incubation with drug was examined, as well as cell death at 24 h, as previously described (see, e.g., Blatt, N. B., et al., 2002 J Clin Invest 110, 1123-1132; incorporated herein by reference in its entirety).

Ramos cells [3] = assay: early O2− (ROS) response, 1 h; format: cell-based, human; details: Homo sapiens, Ramos, 1 h; read-out: ROS EC50 (μM), Ramos cells
Procedure: (§2) To detect O2^−, cells are incubated with DHE (10 μM) for 30 min at 37° C. and are analyzed by flow cytometry to measure ethidium fluorescence. Flow analysis of mitochondrial transmembrane potential (ψm) is conducted by labeling cells with DiOC6(3) (20 nM) for 15 min at 37 degrees C. A positive control for disruption of ψm is established using carbonyl cyanide m-chlorophenylhydrazone (CCCP, 50 μM). Caspase activation assays are performed with FAM-VAD-fluoromethylketone. Processing of the substrate is evaluated by flow cytometry.
as §1

[4] = target: T2, F1F0-ATPase, OSCP subunit (UniProt P48047); assay: F1F0-ATPase activity in SMPs reconstituted in the presence or absence of the OSCP; format: biochemical, bovine; design: not tied in print to the reconstitution assay; details: FIG. 19C
T2 sequence (P48047 1-213): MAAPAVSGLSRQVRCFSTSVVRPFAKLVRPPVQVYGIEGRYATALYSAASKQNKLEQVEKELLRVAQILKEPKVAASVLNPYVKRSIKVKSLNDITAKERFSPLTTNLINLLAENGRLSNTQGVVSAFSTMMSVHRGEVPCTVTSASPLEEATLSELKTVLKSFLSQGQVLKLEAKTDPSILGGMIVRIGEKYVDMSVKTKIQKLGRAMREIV
Procedure: An additional OSCP binding assay was conducted. […] Benzodiazepine derivative compounds that bind the OSCP include, but are not limited to: […]

Jurkat cells [5] = assay: early O2− (ROS) response, 1 h; format: cell-based
Procedure: as §2, §1

[6] = target: T1, mitochondrial F1F0-ATPase; assay: biochemical; design: species or system bovine; details: for Ki: oligomycin; remark: listed apart in the source
ATP synthesis = assay: cellular ATP synthesis (FIG. 15); format: cell-based
Procedure: The following four compounds were exposed to cells, and ATP synthesis measured: […]

[7] = test system: ornithine decarboxylase (ODC); assay: ODC activity in treated cells (conversion of 3H-ornithine to putrescine); format: cell-based, human; details: cells treated for 4 h
Procedure: In these experiments, the conversion of ornithine to putrescine was quantified using ^3H-ornithine. For comparisons, control cells were treated with vehicle control or difluoromethyl ornithine (DFMO), a potent inhibitor of ornithine decarboxylase (like Bz-423, DFMO is a potent anti-proliferative agent). […] The reduction in ODC activity was paralleled by a decrease in ODC protein levels measured under the same conditions.
As described above, Bz-423 induced apoptosis was signaled by an ROS response that arose from MRC complex III as a result of the state 3 to 4 transition. It was next sought to determine if the ROS response, critical for apoptosis, also mediated these effects on ODC. If the ROS was required for the decrease in ODC activity, it would likewise be implicated as potentially part of the anti-proliferative response to Bz-423. To test this, Ramos cells were treated with Bz-423, DFMO, or vehicle control for 4 h. In parallel, a second group of cells was pre-incubated with MnTBAP to limit the ROS and then cultured with Bz-423, DFMO, and vehicle control.

human OSCP = target: T3, human OSCP (Homo sapiens, UniProt P48047); assay: OSCP binding by quenching of intrinsic protein fluorescence
T3 construct: made in house; host or cells: E. coli
Source text: To determine if Bz-423 indeed binds to the OSCP and the affinity of the interaction, human OSCP was overexpressed in E. coli. […] Bz-423 is the only known inhibitor of the ATPase that functions through binding to the OSCP.

Ramos cells [8] = assay: cell culture cytotoxicity assays; format: cell-based, human
Procedure: Like most 1,4-benzodiazepines, Bz-423 binds strongly to bovine serum albumin (BSA), which reduces the effective concentration of drug free in solution. For example, in tissue culture media containing 10% (v/v) fetal bovine serum (FBS), ca. 99% of the drug is bound to BSA. Therefore, cell culture cytotoxicity assays are conducted in media with 2% FBS to reduce binding to BSA and increase the free [Bz-423]. Under these conditions, the dose response-curve is quite sharp such that there is a limited concentration range at which Bz-423 is only partly effective. Since some benzodiazepines are known to have anti-proliferative properties, the effect of Bz-423 at concentrations <ED50 were carefully analyzed and observed that in addition to inducing apoptosis, Bz-423 prevented cell growth after 3 d in culture. In these low serum conditions, the cytotoxic and anti-proliferative effects overlapped making it difficult to study each effect independently. […] While higher amounts of drug may also block proliferation, it caused apoptosis well before the effects on proliferation could be observed.
To confirm the decrease in cell number relative to control cells after 3 d of treatment is due to decreased proliferation and not cell death balanced by proliferation, in addition to cell counting, cell divisions were studied. PKH-67 is a fluorescent probe that binds irreversibly to cell membranes and upon cell division is partitioned equally between the daughter cells, making it possible to quantify cell division by flow cytometry. Ramos cells stained with PKH67 and treated with Bz-423 had fewer cell divisions at sub-cytotoxic concentrations which confirmed that the decrease in cell number was due to anti-proliferative affects and not cell death. To determine if Bz-423 induced anti-proliferation was specific to Ramos cells, cell counting and cell cycle experiments were done in other B cell lines and cell lines derived from solid tumors.

[9] = test system: panel of cells in Table 7; assay: antiproliferation of Bz-Cl against the panel of cells, 3 d; format: cell-based; details: after 3 d
F1F0-ATPase [10] = target: F1F0-ATPase (Homo sapiens, UniProt P05496+P48047); details: read-out: IC50 for oligomycin; cited from earlier work
Na,K-ATPases = details: cited from earlier work
F1F0-ATPase [11] = target: F1F0-ATPase (Bos taurus, UniProt P13621+P32876); assay: off-rate measurements, recovery of ATP synthesis of SMPs after dilution; format: biochemical, bovine
Procedure: Inhibition of Na,K-ATPases with oligomycin is time-dependent and results from a slow rate of dissociation from the enzyme (0.05 s^−1) (see, e.g., Esmann, M. (1991) Biochim. Biophys. Acta 1064, 31-36; herein incorporated by reference in its entirety). Since time-dependent inhibition can have profound effects on the function of the F1F0-ATPase, the off-rate of Bz-423 and oligomycin during ATP synthesis was examined. […] Inhibited SMP suspensions were diluted into buffer and activity was measured over time. Enzymatic activity of the SMPs incubated with Bz-423 had recovered to 90% of control at 10 s, indicating rapid dissociation (see, FIG. 18). In contrast, the activity of the enzyme incubated with oligomycin was only 54% of the uninhibited activity at 10 s, and increased for several minutes after dilution (see, FIG. 18). The time-dependence of the recovery of activity fit to a single exponential yielding an apparent dissociation rate constant for Bz-423>0.3 s^−1. However, dissociation of oligomycin was complex and a portion of the inhibitor dissociated at least 10-fold slower, consistent with a tight-binding, slow-dissociating inhibitor (see, e.g., Morrison, J. F., and Walsh, C. T. (1988) Adv. Enzymol. Relat. Areas Mol. Biol. 61, 201-301; herein incorporated by reference in its entirety). Presumably, the constraints of a high-affinity inhibitor dissociating from the membrane embedded proton channel presented a significant barrier for dissociation resulting in a slow off-rate.
Off-rate measurements. Rate of inhibition of ATP synthesis was measured as described above with the following changes. A 20 μL aliquot of SMPs (1 mg mL^−1) in synthesis buffer (with 10 mM K2HPO4) was added to each well of a 96-well plate containing 2.5 μL of 100× drug (14 μM Bz-423 and 35 nM oligomycin, final) or DMSO vehicle control. The drug was diluted out by adding 200 μL of synthesis buffer to each well. Substratecoupling mixture (25 μL with 1 mM ADP) was added to each well at the indicated time point and the rate of NADP^+ reduction was monitored over time.

[12] = rodents, two daily doses; cited from earlier work
[13] = Jurkat cells, 75 μM PK11195, with or without antioxidant pre-incubation
[14] = synthesis, three-dimensional fit
[15] = hydrolysis, three-dimensional fit

Q: For `CCC(C)N(C)C(=O)c1cc2ccccc2c(-c2ccccc2Cl)n1` (stereo not shown) [PK11195], which EC50 ([1]; bovine SMPs, read-out: ATPase activity EC50 (μM), Synthesis) is on record?
A: 33 µM

Q: And the EC50 (Ramos B cells; Ramos, 24 h, read-out: Cell death EC50 (μM), Ramos cells)?
A: 90 µM

Q: And the EC50 (Ramos B cells; Ramos B cells, 24 h (Table 6), read-out: EC50 (μM), cell death)?
A: > 80 µM

Q: What about the EC50 (Jurkat cells [2]; Homo sapiens, Jurkat, 24 h, read-out: Cell death EC50 (μM), Jurkat cells) of the same molecule?
A: 75 µM

Q: What about the “% Cell death” value (Jurkat cells [2]; [13]) of the same molecule?
A: 85.5 ± 1.7%

Q: And the EC50 (Ramos cells [3])?
A: 100 µM

Q: And the “dependence of F1F0-ATPase inhibition on the OSCP” value [4]?
A: more potent inhibitor of F1F0-ATPase activity in the presence of the OSCP

Q: And the EC50 (Jurkat cells [5]; Homo sapiens, Jurkat, 1 h, read-out: ROS EC50 (μM), Jurkat cells)?
A: 56 µM

Q: And the “% ROS+” value (Jurkat cells [5]; [13])?
A: 67.9 ± 5.0%

Q: And the “inhibition of mitochondrial ATPase activity” value ([6]; 80 μM)?
A: do not significantly inhibit mitochondrial ATPase activity

Q: What about the EC50 ([6]; bovine SMPs, read-out: ATPase activity EC50 (μM), Hydrolysis) of the same molecule?
A: 230 µM

Q: For `CN1C(=O)C(c2ccccc2)NC(c2ccc(O)cc2)c2cc(Cl)ccc21` (stereo not shown), which “inhibition of cellular ATP synthesis” value (ATP synthesis) is on record?
A: did inhibit ATP synthesis

Q: Which “effect on ODC activity” value [7] does the source give for `CN1C(=O)C(Cc2ccc3ccccc3c2)N=C(c2ccc(Cl)cc2)c2cc(Cl)ccc21` (stereo not shown) [Bz-Cl] here?
A: inhibited ODC activity

Q: What about the Kd (human OSCP) of the same molecule?
A: ~5 µM

Q: And the “decrease of cytotoxic activity compared to Bz-423” value (Ramos cells [8])?
A: ~80%

Q: What about the “effect on proliferation compared with Bz-423” value [9] of the same molecule?
A: reduced proliferation to a similar extent as Bz-423

Q: Which IC50 (F1F0-ATPase [10]) does the source give for `CC[C@H]1/C=C/C=C/C[C@@H](C)[C@H](O)[C@@](C)(O)C(=O)[C@@H](C)[C@H](O)[C@@H](C)C(=O)[C@@H](C)[C@H](O)[C@@H](C)/C=C/C(=O)O[C@@H]2[C@H](C)[C@H](CC1)O[C@]1(CC[C@H](C)[C@H](C[C@@H](C)O)O1)[C@H]2C` [oligomycin, reference compound] here?
A: 0.01 µM

Q: And the Ki ([1]; Ki (E), synthesis)?
A: 0.0105 ± 0.0009 µM

Q: What about the Ki ([1]; Ki (ES), synthesis) of the same molecule?
A: 0.012 ± 0.001 µM

Q: What about the Mechanism of inhibition ([1]; synthesis) of the same molecule?
A: mixed inhibitor

Q: What about the “nE, cooperativity factor for competitive inhibition constant” value ([1]; synthesis) of the same molecule?
A: 3.6 ± 0.5

Q: And the “nES, cooperativity factor for uncompetitive inhibition constant” value ([1]; synthesis)?
A: 1.6 ± 0.3

Q: And the “K∞” value [1, 14]?
A: 0.12 ± 0.01 mM

Q: What about the Vmax [1, 14] of the same molecule?
A: 0.089 ± 0.003 µmol/min/mg

Q: What about the “rate of dissociation from the enzyme” value (Na,K-ATPases) of the same molecule?
A: 0.05 s⁻¹

Q: And the “slower dissociation of a portion of the inhibitor” value (F1F0-ATPase [11])?
A: at least 10 fold

Q: What about the “reduction of F1F0-ATPase activity at the concentration produced after dilution” value (F1F0-ATPase [11]; 1.4 μM Bz-423, 3.5 nM oligomycin) of the same molecule?
A: 15%

Q: What about the “ATP synthesis activity relative to that in the absence of inhibitor” value (F1F0-ATPase [11]; 14 μM Bz-423 or 35 nM oligomycin) of the same molecule?
A: 14%

Q: What about the “enzymatic activity recovered after dilution, % of control” value (F1F0-ATPase [11]; at 10 s after dilution) of the same molecule?
A: 54%

Q: And the LD50 for oligomycin [12]?
A: 0.5 mg/kg

Q: What about the Mechanism of inhibition ([6]; hydrolysis) of the same molecule?
A: noncompetitive inhibitor; also recorded: Non-competitive

Q: And the “nE, cooperativity factor for competitive inhibition constant” value ([6]; hydrolysis)?
A: 1.1 ± 0.3

Q: What about the “nES, cooperativity factor for uncompetitive inhibition constant” value ([6]; hydrolysis) of the same molecule?
A: 1.2 ± 0.1

Q: And the Ki ([6]; hydrolysis, read-out: Ki (E))?
A: 0.011 ± 0.003 µM

Q: What about the Ki ([6]; hydrolysis, read-out: Ki (ES)) of the same molecule?
A: 0.013 ± 0.001 µM

Q: What about the “K∞” value [6, 15] of the same molecule?
A: 0.12 ± 0.02 mM

Q: What about the Vmax [6, 15] of the same molecule?
A: 0.77 ± 0.03 µmol/min/mg
